Values joined by “and” are separate entries in the source; they are usually repeats but may differ in a detail not shown here. Equal entries are not always repeated. Toxic doses and inconclusive results are not listed.
Test system: P388 leukemia ip, CD2F1 mice, survival T/C
Test: NCI In Vivo Anticancer Drug Screen. Data for tumor model P388 Leukemia (intraperitoneal) in CD2F1 (CDF1) mice
Settings: endpoint: median survival time, higher = longer survival
Procedure, shortened: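 Mice carrying the transplanted tumor received test compound or vehicle. Survival was recorded in each group, and the value is the treated-group measurement divided by that of the vehicle-treated control group.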

[1] = dose: 50.0 mg/kg/injection, schedule: Q01DX009 (ip), vehicle: Klucel (hydroxypropylcellulose) (HPC)
[2] = dose: 100.0 mg/kg/injection, schedule: Q01DX009 (ip), vehicle: Klucel (hydroxypropylcellulose) (HPC)
[3] = dose: 200.0 mg/kg/injection, schedule: Q01DX009 (ip), vehicle: Klucel (hydroxypropylcellulose) (HPC)
[4] = dose: 15.0 mg/kg/injection, schedule: Q01DX005 (ip), vehicle: Klucel (hydroxypropylcellulose) (HPC)
[5] = dose: 30.0 mg/kg/injection, schedule: Q01DX005 (ip), vehicle: Klucel (hydroxypropylcellulose) (HPC)
[6] = dose: 50.0 mg/kg/injection, schedule: Q01DX005 (ip), vehicle: saline with Tween-80
[7] = dose: 100.0 mg/kg/injection, schedule: Q01DX005 (ip), vehicle: saline with Tween-80
[8] = dose: 200.0 mg/kg/injection, schedule: Q01DX005 (ip), vehicle: saline with Tween-80
[9] = dose: 60.0 mg/kg/injection, schedule: Q01DX005 (ip), vehicle: saline with Tween-80
[10] = dose: 120.0 mg/kg/injection, schedule: Q01DX005 (ip), vehicle: saline with Tween-80
[11] = dose: 240.0 mg/kg/injection, schedule: Q01DX005 (ip), vehicle: saline with Tween-80
[12] = dose: 6.25 mg/kg/injection, schedule: Q01DX009 (ip), vehicle: Klucel (hydroxypropylcellulose) (HPC)
[13] = dose: 100.0 mg/kg/injection, schedule: Q01DX001 (ip), vehicle: Klucel (hydroxypropylcellulose) (HPC)
[14] = dose: 200.0 mg/kg/injection, schedule: Q01DX001 (ip), vehicle: Klucel (hydroxypropylcellulose) (HPC)
[15] = dose: 400.0 mg/kg/injection, schedule: Q01DX001 (ip), vehicle: Klucel (hydroxypropylcellulose) (HPC)
[16] = dose: 50.0 mg/kg/injection, schedule: Q01DX005 (ip), vehicle: Klucel (hydroxypropylcellulose) (HPC)
[17] = dose: 100.0 mg/kg/injection, schedule: Q01DX005 (ip), vehicle: Klucel (hydroxypropylcellulose) (HPC)
[18] = dose: 200.0 mg/kg/injection, schedule: Q01DX005 (ip), vehicle: Klucel (hydroxypropylcellulose) (HPC)
[19] = dose: 15.0 mg/kg/injection, schedule: Q01DX005 (ip), vehicle: saline with Tween-80
[20] = dose: 30.0 mg/kg/injection, schedule: Q01DX005 (ip), vehicle: saline with Tween-80
[21] = dose: 50.0 mg/kg/injection, schedule: Q01DX009 (ip), vehicle: saline with Tween-80
[22] = dose: 100.0 mg/kg/injection, schedule: Q01DX009 (ip), vehicle: saline with Tween-80
[23] = dose: 200.0 mg/kg/injection, schedule: Q01DX009 (ip), vehicle: saline with Tween-80
[24] = dose: 400.0 mg/kg/injection, schedule: Q01DX009 (ip), vehicle: Klucel (hydroxypropylcellulose) (HPC)
[25] = dose: 12.5 mg/kg/injection, schedule: Q01DX009 (ip), vehicle: Klucel (hydroxypropylcellulose) (HPC)

## C=C1C(=O)OC2CC(C)C3C=CC(=O)C3CC12 (centres undefined)
dose: 0.15 mg/kg/injection, schedule: Q01DX009 (ip), vehicle: Klucel (hydroxypropylcellulose) (HPC)
  T/C: 98 % of control
dose: 0.3 mg/kg/injection, schedule: Q01DX009 (ip), vehicle: Klucel (hydroxypropylcellulose) (HPC)
  T/C: 100 % of control
dose: 0.6 mg/kg/injection, schedule: Q01DX009 (ip), vehicle: Klucel (hydroxypropylcellulose) (HPC)
  T/C: 99 % of control and 103 % of control
dose: 2.34 mg/kg/injection, schedule: Q01DX009 (ip), vehicle: Klucel (hydroxypropylcellulose) (HPC)
  T/C: 102 % of control
dose: 2.4 mg/kg/injection, schedule: Q01DX009 (ip), vehicle: Klucel (hydroxypropylcellulose) (HPC)
  T/C: 104 % of control

## O=C(O)C1C2C=CC(O2)C1C(=O)Nn1cccc1 (centres undefined)
[1]
  T/C: 99 % of control
[2]
  T/C: 94 % of control
[3]
  T/C: 95 % of control

## COc1ccc(-n2cnc3[nH]ncc3c2=O)cc1
dose: 7.5 mg/kg/injection, schedule: Q01DX005 (ip), vehicle: Klucel (hydroxypropylcellulose) (HPC)
  T/C: 104 % of control
[4]
  T/C: 106 % of control
[5]
  T/C: 110 % of control

## COC(=O)C1=C(C(=O)OC)C2OC1C(COC(=O)NC1CCCCC1)=C2COC(=O)NC1CCCCC1
dose: 12.5 mg/kg/injection, schedule: Q01DX009 (ip), vehicle: distilled water + Tween-80
  T/C: 89 % of control
dose: 25.0 mg/kg/injection, schedule: Q01DX009 (ip), vehicle: distilled water + Tween-80
  T/C: 87 % of control
dose: 50.0 mg/kg/injection, schedule: Q01DX009 (ip), vehicle: distilled water + Tween-80
  T/C: 89 % of control
dose: 100.0 mg/kg/injection, schedule: Q01DX009 (ip), vehicle: distilled water + Tween-80
  T/C: 87 % of control
dose: 200.0 mg/kg/injection, schedule: Q01DX009 (ip), vehicle: distilled water + Tween-80
  T/C: 101 % of control

## COC(=O)C[Si](C)(C)C
[6]
  T/C: 105 % of control
[7]
  T/C: 98 % of control
[8]
  T/C: 95 % of control

## C(CCc1nnc2c(n1)CCCC2)Cc1nnc2c(n1)CCCC2
[9]
  T/C: 99 % of control
[10]
  T/C: 88 % of control

## CCOc1ccc(N=C2C=C(Nc3ccc(OCC)cc3)C(=Nc3ccc(OCC)cc3)C=C2Nc2ccc(OCC)cc2)cc1
[9]
  T/C: 96 % of control
[10]
  T/C: 95 % of control
[11]
  T/C: 92 % of control

## NC(Cc1ccc(N(CCCl)CCCl)cc1)C(=O)O (centres undefined)
dose: 3.12 mg/kg/injection, schedule: Q01DX009 (ip), vehicle: Klucel (hydroxypropylcellulose) (HPC)
  T/C: 285 % of control and 309 % of control
[12]
  T/C: 99 % of control and 105 % of control and 117 % of control

## O=c1oc(-c2cccc(-c3nc4sc5c(c4c(=O)o3)CCCC5)c2)nc2sc3c(c12)CCCC3
[13]
  T/C: 93 % of control
[14]
  T/C: 91 % of control
[15]
  T/C: 89 % of control

## O=C(Nc1ccccc1C1=NCCN1)c1ccc(C(=O)Nc2ccccc2C2=NCCN2)cc1
[16]
  T/C: 96 % of control
[17]
  T/C: 87 % of control
[18]
  T/C: 91 % of control

## O=C(O)C(c1ccccc1)N1C(=O)C(Cl)=C(Cl)C1=O (centres undefined)
[19]
  T/C: 94 % of control
[20]
  T/C: 100 % of control
[9]
  T/C: 103 % of control and 112 % of control

## CCOC(=O)C(C)ONC(=O)Nc1ccc(Cl)cc1 (centres undefined)
[21]
  T/C: 105 % of control
[22]
  T/C: 103 % of control
[23]
  T/C: 95 % of control

## CCOC(=O)C1=C(O)C(=O)NC1c1ccccc1 (centres undefined)
[4]
  T/C: 111 % of control
[5]
  T/C: 102 % of control
dose: 60.0 mg/kg/injection, schedule: Q01DX005 (ip), vehicle: Klucel (hydroxypropylcellulose) (HPC)
  T/C: 102 % of control and 107 % of control

## N#Cc1c(-c2ccccc2)ssc1=S
[9]
  T/C: 104 % of control
[10]
  T/C: 103 % of control
[11]
  T/C: 106 % of control

## CC1S(=O)(=O)O[Si](C)(C)CC[Si](C)(C)OS1(=O)=O
[16]
  T/C: 105 % of control
[17]
  T/C: 100 % of control
[18]
  T/C: 102 % of control

## CCCCCCOC(=O)CC1CC(C(C)=O)C1(C)C (centres undefined)
[1]
  T/C: 94 % of control
[2]
  T/C: 106 % of control
[3]
  T/C: 109 % of control
[24]
  T/C: 117 % of control

## CC1C2c3ccccc3C(c3ccccc32)C1C(=O)O (centres undefined)
[6]
  T/C: 98 % of control
[7]
  T/C: 100 % of control
[8]
  T/C: 107 % of control

## COc1ccc2ccc3cccnc3c2n1
[9]
  T/C: 93 % of control
[10]
  T/C: 99 % of control
[11]
  T/C: 105 % of control

## O=c1c2ccccc2c(=O)n2c(=O)c3ccccc3c(=O)n12
[1]
  T/C: 100 % of control
[2]
  T/C: 100 % of control
[3]
  T/C: 104 % of control
[24]
  T/C: 103 % of control

## c1ccc2nc3c(nc2c1)CCCC3
[16]
  T/C: 96 % of control
[17]
  T/C: 109 % of control
[18]
  T/C: 100 % of control

## NC(=S)N/N=C/c1nc2ccccn2c1[N+](=O)[O-]
[2]
  T/C: 86 % of control

## CC(=O)n1c(Cl)c(C=O)c2ccccc21
[13]
  T/C: 99 % of control
[14]
  T/C: 99 % of control
[15]
  T/C: 100 % of control

## CCCCCCC1=NC(C)(C)CO1
[21]
  T/C: 100 % of control
dose: 50.0 mg/kg/injection, schedule: Q04DX003 (ip), vehicle: saline with Tween-80
  T/C: 100 % of control
[22]
  T/C: 104 % of control
dose: 100.0 mg/kg/injection, schedule: Q04DX003 (ip), vehicle: saline with Tween-80
  T/C: 100 % of control
[23]
  T/C: 100 % of control
dose: 200.0 mg/kg/injection, schedule: Q04DX003 (ip), vehicle: saline with Tween-80
  T/C: 109 % of control

## CCCN1C[C@H](CSC)C[C@@H]2c3cccc4[nH]cc(c34)C[C@H]21
[12]
  T/C: 103 % of control
[25]
  T/C: 101 % of control
dose: 25.0 mg/kg/injection, schedule: Q01DX009 (ip), vehicle: Klucel (hydroxypropylcellulose) (HPC)
  T/C: 99 % of control

## COC(=O)C(Cl)c1ccccc1 (centres undefined)
[22]
  T/C: 104 % of control
[23]
  T/C: 113 % of control
dose: 400.0 mg/kg/injection, schedule: Q01DX009 (ip), vehicle: saline with Tween-80
  T/C: 100 % of control

## CC([NH-])C(=O)O.CC([NH-])C(=O)O.[Cu+2] (centres undefined)
[25]
  T/C: 99 % of control

## CCCCCc1cc(/C=C2/N=C(c3ccc[nH]3)C=C2OC)[nH]c1C
dose: 1.5 mg/kg/injection, schedule: Q01DX009 (ip), vehicle: saline
  T/C: 114 % of control
dose: 3.0 mg/kg/injection, schedule: Q01DX009 (ip), vehicle: saline
  T/C: 120 % of control and 123 % of control
dose: 6.0 mg/kg/injection, schedule: Q01DX009 (ip), vehicle: saline
  T/C: 107 % of control

## Cc1cc(C)c(S(=O)(=O)N/N=C(\CBr)c2ccccc2)c(C)c1
dose: 7.5 mg/kg/injection, schedule: Q01DX005 (ip), vehicle: saline with Tween-80
  T/C: 97 % of control
[19]
  T/C: 91 % of control
[20]
  T/C: 102 % of control
[11]
  T/C: 89 % of control

## Cc1ccc(NCCCC2CCCN3CCCCC23)c2c(=O)c3ccccc3sc12 (centres undefined)
dose: 12.5 mg/kg/injection, schedule: Q01DX005 (ip), vehicle: distilled water + Tween-80
  T/C: 100 % of control
dose: 25.0 mg/kg/injection, schedule: Q01DX005 (ip), vehicle: distilled water + Tween-80
  T/C: 91 % of control
dose: 50.0 mg/kg/injection, schedule: Q01DX005 (ip), vehicle: distilled water + Tween-80
  T/C: 90 % of control

## CN(C)C1c2cc(Cl)ccc2-c2c(N)cc(Cl)cc21 (centres undefined)
[16]
  T/C: 103 % of control
[17]
  T/C: 99 % of control
[18]
  T/C: 91 % of control

## COc1ccc(O)c(CN2CCN(Cc3cc(OC)ccc3O)CC2)c1
[19]
  T/C: 91 % of control
[20]
  T/C: 86 % of control

## COc1cc(C2OCC3C(c4cc(OC)c(OC)c(OC)c4)OCC23)cc(OC)c1OC (centres undefined)
[16]
  T/C: 102 % of control
[17]
  T/C: 100 % of control
[18]
  T/C: 102 % of control

Source: PubChem BioAssay AID330 (DTP/NCI, 2004)
